Experimental data: patent US20220312767A1, “PYRIDAZINE COMPOUNDS AND HERBICIDES” (Nippon Soda Co., Ltd., priority 2019, published 2022)

What was measured:
Digitaria ciliaris [1] = assay: Soil treatment test (Test Example 2); format: in vivo; conditions: four weeks after
Method: (§1) A test emulsion was prepared by the same method as that in Test example 1.
(§2) 70 cm^2 pots were filled with soil, and then seeds of Digitaria ciliaris and Amaranthus retroflexus were sown on the surface layer of each of the pots, respectively, followed by lightly covering with soil. On the next day, the above-mentioned test emulsion was diluted to obtain a predetermined active ingredient amount, and then was sprayed onto the soil surface at a spray volume of 2860 L per hectare using a small sprayer.
(§3) Four weeks after, the fresh grass mass at an aerial part on an untreated area or a treated area was measured per weed, and the herbicidal ratio was calculated by the following calculation formula.
(§4) Herbicidal ratio (%)=(the fresh grass mass at an aerial part on untreated area−the fresh grass mass at an aerial part on treated area)/(the fresh grass mass at an aerial part on untreated area)×100
(§5) The compounds A-1 and A-4 were sprayed at a spray amount of 63 g or 31 g per hectare, respectively.
(§6) In addition, the following compounds (A) to (C) disclosed in Patent Document 1 were sprayed in a similar manner.

Amaranthus retroflexus [2] = assay: Soil treatment test (Test Example 2); format: in vivo; conditions: four weeks after
Method: as §1, §2, §3, §4, §5, §6

Digitaria ciliaris [3] = assay: Foliage treatment test (Test Example 1), foliage spray; format: in vivo; conditions: 250 g per hectare, three weeks after, fresh grass mass of aerial part vs untreated
Method: (§7) POA allylphenyl ether (4.1 parts by mass), POE-POP glycol (1 part by mass), POE sorbitanlaurate (0.8 parts by mass), glycerin (2.6 parts by mass), dimethylformamide (65.9 parts by mass), N-methylpyrolidone (5.1 parts by mass), cyclohexanone (15.4 parts by mass), and aromatic hydrocarbon (5.1 parts by mass) were mixed and dissolved to prepare an emulsion. The compound according to the present invention (4 mg) was dissolved in the emulsion (100 μL) to prepare a test emulsion. The term “POA” means “polyoxyalkylene”, the term “POE” means “polyoxyethylene”, and the term “POP” means “polyoxypropylene”.
(§8) 150 cm^2 pots were filled with soil, and then seeds of Avena sativa, Matricaria chamomilla, Setaria faberi, Digitaria ciliaris, Abutilon theophrasti and Amaranthus retroflexus were sown on the surface layer of each of the pots, respectively, followed by lightly covering with soil. Then, the seeds were grown in a greenhouse. When each plant was grown to obtain a grass height of 2 cm to 4 cm, the above-mentioned test emulsion diluted to obtain a predetermined active ingredient amount was sprayed onto the leaves and stems at a spray volume of 250 L per hectare using a small sprayer.
(§9) Three weeks after, the fresh grass mass at an aerial part on an untreated area or a treated area was measured per weed, and the herbicidal ratio was calculated by the following calculation formula.
as §4

Setaria faberi = assay: as above; format: in vivo; conditions: 250 g per hectare, three weeks after, fresh grass mass of aerial part vs untreated
Method: as §7, §8, §9, §4

Amaranthus retroflexus [4] = assay: as above; format: in vivo; conditions: 250 g per hectare, three weeks after, fresh grass mass of aerial part vs untreated
Method: as §7, §8, §9, §4

Matricaria chamomilla = assay: as above; format: in vivo; conditions: 250 g per hectare, three weeks after, fresh grass mass of aerial part vs untreated
Method: as §7, §8, §9, §4

Avena sativa = assay: as above; format: in vivo; conditions: 250 g per hectare, three weeks after, fresh grass mass of aerial part vs untreated
Method: as §7, §8, §9, §4

Cn1ncc(-c2ccc(C(F)(F)F)cc2S(C)(=O)=O)c(O)c1=O [(A)]
Herbicidal ratio Digitaria ciliaris (Digitaria ciliaris [1]; spray amount 31 g/ha): 0%
Herbicidal ratio Digitaria ciliaris (Digitaria ciliaris [1]; spray amount 63 g/ha): 0%
Herbicidal ratio Amaranthus retroflexus (Amaranthus retroflexus [2]; spray amount 31 g/ha): 0%
Herbicidal ratio Amaranthus retroflexus (Amaranthus retroflexus [2]; spray amount 63 g/ha): 0%

CC(=O)Oc1c(-c2ccc(C(F)(F)F)cc2S(C)(=O)=O)cnn(C)c1=O [(B)]
Herbicidal ratio Digitaria ciliaris (Digitaria ciliaris [1]; spray amount 31 g/ha): 0%
Herbicidal ratio Digitaria ciliaris (Digitaria ciliaris [1]; spray amount 63 g/ha): 30%
Herbicidal ratio Amaranthus retroflexus (Amaranthus retroflexus [2]; spray amount 31 g/ha): 0%
Herbicidal ratio Amaranthus retroflexus (Amaranthus retroflexus [2]; spray amount 63 g/ha): 0%

Cc1ccc(S(=O)(=O)Oc2c(-c3ccc(C(F)(F)F)cc3S(C)(=O)=O)cnn(C)c2=O)cc1 [(C)]
Herbicidal ratio Digitaria ciliaris (Digitaria ciliaris [1]; spray amount 31 g/ha): 40%
Herbicidal ratio Digitaria ciliaris (Digitaria ciliaris [1]; spray amount 63 g/ha): 70%
Herbicidal ratio Amaranthus retroflexus (Amaranthus retroflexus [2]; spray amount 31 g/ha): 0%
Herbicidal ratio Amaranthus retroflexus (Amaranthus retroflexus [2]; spray amount 63 g/ha): 0%

CC(OC(=O)C(C)C)Oc1c(-c2ccc(C(F)(F)F)cc2S(C)(=O)=O)cnn(C)c1=O (stereo not shown) [Compound A-1]
Herbicidal ratio against Digitaria ciliaris (Digitaria ciliaris [3]): 100%
Herbicidal ratio against Setaria faberi (Setaria faberi): 100%
Herbicidal ratio against Amaranthus retroflexus (Amaranthus retroflexus [4]): 100%
Herbicidal ratio against Matricaria chamomilla (Matricaria chamomilla): 100%
Herbicidal ratio against Avena sativa (Avena sativa): 100%
Herbicidal ratio Digitaria ciliaris (Digitaria ciliaris [1]; spray amount 31 g/ha): 100%
Herbicidal ratio Digitaria ciliaris (Digitaria ciliaris [1]; spray amount 63 g/ha): 100%
Herbicidal ratio Amaranthus retroflexus (Amaranthus retroflexus [2]; spray amount 31 g/ha): 100%
Herbicidal ratio Amaranthus retroflexus (Amaranthus retroflexus [2]; spray amount 63 g/ha): 100%

COC(=O)OC(C)Oc1c(-c2ccc(S(C)(=O)=O)cc2Cl)cnn(C)c1=O (stereo not shown) [Compound A-2]
Herbicidal ratio against Matricaria chamomilla (Matricaria chamomilla): 100%
Herbicidal ratio against Avena sativa (Avena sativa): 100%

COC(=O)OCOc1c(-c2ccc(C(F)(F)F)cc2S(C)(=O)=O)cnn(C)c1=O [Compound A-3]
Herbicidal ratio against Digitaria ciliaris (Digitaria ciliaris [3]): 100%
Herbicidal ratio against Setaria faberi (Setaria faberi): 100%
Herbicidal ratio against Amaranthus retroflexus (Amaranthus retroflexus [4]): 100%
Herbicidal ratio against Matricaria chamomilla (Matricaria chamomilla): 100%
Herbicidal ratio against Avena sativa (Avena sativa): 100%

COC(=O)OC(C)Oc1c(-c2ccc(C(F)(F)F)cc2S(C)(=O)=O)cnn(C)c1=O (stereo not shown) [Compound A-4, methyl (1-((2-methyl-5-(2-(methylsulfonyl)-4-(trifluoromethyl)phenyl)-3-oxo-2,3-dihydropyridazin-4-yl)oxy)ethyl) carbonate]
Herbicidal ratio against Digitaria ciliaris (Digitaria ciliaris [3]): 100%
Herbicidal ratio against Amaranthus retroflexus (Amaranthus retroflexus [4]): 100%
Herbicidal ratio against Matricaria chamomilla (Matricaria chamomilla): 100%
Herbicidal ratio against Avena sativa (Avena sativa): 100%
Herbicidal ratio Digitaria ciliaris (Digitaria ciliaris [1]; spray amount 63 g/ha): 100%
Herbicidal ratio Amaranthus retroflexus (Amaranthus retroflexus [2]; spray amount 63 g/ha): 100%
melting point: 173 to 176 °C

CC(C)C(=O)OCOc1c(-c2ccc(C(F)(F)F)cc2S(C)(=O)=O)cnn(C)c1=O [Compound A-5]
Herbicidal ratio against Digitaria ciliaris (Digitaria ciliaris [3]): 100%
Herbicidal ratio against Setaria faberi (Setaria faberi): 100%
Herbicidal ratio against Amaranthus retroflexus (Amaranthus retroflexus [4]): 100%
Herbicidal ratio against Matricaria chamomilla (Matricaria chamomilla): 100%
Herbicidal ratio against Avena sativa (Avena sativa): 100%

COC(=O)OC(C)Oc1c(-c2ccc(S(C)(=O)=O)c(C3=NOCC3)c2Cl)cnn(C)c1=O (stereo not shown) [Compound A-7]
Herbicidal ratio against Digitaria ciliaris (Digitaria ciliaris [3]): 100%
Herbicidal ratio against Setaria faberi (Setaria faberi): 100%
Herbicidal ratio against Amaranthus retroflexus (Amaranthus retroflexus [4]): 100%
Herbicidal ratio against Matricaria chamomilla (Matricaria chamomilla): 100%
Herbicidal ratio against Avena sativa (Avena sativa): 100%

COCCOc1c(S(C)(=O)=O)ccc(-c2cnn(C)c(=O)c2OC(C)OC(=O)OC)c1Cl (stereo not shown) [Compound A-8]
Herbicidal ratio against Digitaria ciliaris (Digitaria ciliaris [3]): 100%
Herbicidal ratio against Amaranthus retroflexus (Amaranthus retroflexus [4]): 100%
Herbicidal ratio against Matricaria chamomilla (Matricaria chamomilla): 100%

COC(=O)OC(C)Oc1c(-c2ccc(C(F)(F)F)c(NC(=O)C3CC3)c2C)cnn(C)c1=O (stereo not shown) [Compound A-9]
Herbicidal ratio against Setaria faberi (Setaria faberi): 100%
Herbicidal ratio against Amaranthus retroflexus (Amaranthus retroflexus [4]): 100%
Herbicidal ratio against Matricaria chamomilla (Matricaria chamomilla): 100%
Herbicidal ratio against Avena sativa (Avena sativa): 100%
